Laboratory results published in the CheMixHub viscosity set.
± gives the uncertainty stated by the source.

Assay: xn = mol fraction of the nth substance listed

In the case of `COCCOCCOCCOC` + COC(C)=O, the viscosity (298.15 K, 101.3 kPa, x1 = 0.022) is reported as 0.398 ± 0.006 mPa·s, the viscosity (298.15 K, 101.3 kPa, x1 = 0.0473) is reported as 0.424 ± 0.007 mPa·s and the viscosity (298.15 K, 101.3 kPa, x1 = 0.0717) is reported as 0.455 ± 0.007 mPa·s. The viscosity (298.15 K, 101.3 kPa, x1 = 0.1255) was 0.527 ± 0.008 mPa·s, the viscosity (298.15 K, 101.3 kPa, x1 = 0.1838) was 0.61 ± 0.009 mPa·s and the viscosity (298.15 K, 101.3 kPa, x1 = 0.2145) was 0.649 ± 0.009 mPa·s. It also gave a viscosity (298.15 K, 101.3 kPa, x1 = 0.236) of 0.676 ± 0.009 mPa·s, a viscosity (298.15 K, 101.3 kPa, x1 = 0.2557) of 0.709 ± 0.01 mPa·s and a viscosity (298.15 K, 101.3 kPa, x1 = 0.3143) of 0.802 ± 0.011 mPa·s. The viscosity (298.15 K, 101.3 kPa, x1 = 0.4027) was 0.943 ± 0.013 mPa·s, the viscosity (298.15 K, 101.3 kPa, x1 = 0.4806) was 1.07 ± 0.014 mPa·s and the viscosity (298.15 K, 101.3 kPa, x1 = 0.5743) was 1.234 ± 0.016 mPa·s. The viscosity (298.15 K, 101.3 kPa, x1 = 0.6289) was 1.326 ± 0.017 mPa·s, the viscosity (298.15 K, 101.3 kPa, x1 = 0.6511) was 1.367 ± 0.018 mPa·s and the viscosity (298.15 K, 101.3 kPa, x1 = 0.7138) was 1.474 ± 0.019 mPa·s. For the same compound, the viscosity (298.15 K, 101.3 kPa, x1 = 0.7667) was 1.566 ± 0.02 mPa·s, the viscosity (298.15 K, 101.3 kPa, x1 = 0.7792) was 1.593 ± 0.02 mPa·s and the viscosity (298.15 K, 101.3 kPa, x1 = 0.8702) was 1.743 ± 0.022 mPa·s. For the same compound, the viscosity (298.15 K, 101.3 kPa, x1 = 0.9014) was 1.805 ± 0.023 mPa·s, the viscosity (298.15 K, 101.3 kPa, x1 = 0.9571) was 1.891 ± 0.024 mPa·s and the viscosity (298.15 K, 101.3 kPa, x2 = 0.0137) was 1.936 ± 0.024 mPa·s. The viscosity (308.15 K, 101.3 kPa, x1 = 0.022) was 0.352 ± 0.006 mPa·s, the viscosity (308.15 K, 101.3 kPa, x1 = 0.0473) was 0.378 ± 0.006 mPa·s and the viscosity (308.15 K, 101.3 kPa, x1 = 0.0717) was 0.404 ± 0.007 mPa·s. For the same compound, the viscosity (308.15 K, 101.3 kPa, x1 = 0.1255) was 0.465 ± 0.007 mPa·s, the viscosity (308.15 K, 101.3 kPa, x1 = 0.1838) was 0.534 ± 0.008 mPa·s and the viscosity (308.15 K, 101.3 kPa, x1 = 0.2145) was 0.561 ± 0.008 mPa·s. The viscosity (308.15 K, 101.3 kPa, x1 = 0.236) was 0.58 ± 0.008 mPa·s, the viscosity (308.15 K, 101.3 kPa, x1 = 0.2557) was 0.616 ± 0.009 mPa·s and the viscosity (308.15 K, 101.3 kPa, x1 = 0.3143) was 0.687 ± 0.01 mPa·s. For the same compound, the viscosity (308.15 K, 101.3 kPa, x1 = 0.4027) was 0.802 ± 0.011 mPa·s, the viscosity (308.15 K, 101.3 kPa, x1 = 0.4806) was 0.905 ± 0.012 mPa·s and the viscosity (308.15 K, 101.3 kPa, x1 = 0.5743) was 1.031 ± 0.014 mPa·s. For the same compound, the viscosity (308.15 K, 101.3 kPa, x1 = 0.6289) was 1.1 ± 0.014 mPa·s, the viscosity (308.15 K, 101.3 kPa, x1 = 0.6511) was 1.13 ± 0.015 mPa·s and the viscosity (308.15 K, 101.3 kPa, x1 = 0.7138) was 1.215 ± 0.016 mPa·s. The viscosity (308.15 K, 101.3 kPa, x1 = 0.7667) was 1.286 ± 0.017 mPa·s, the viscosity (308.15 K, 101.3 kPa, x1 = 0.7792) was 1.308 ± 0.017 mPa·s and the viscosity (308.15 K, 101.3 kPa, x1 = 0.8702) was 1.426 ± 0.018 mPa·s. For the same compound, the viscosity (308.15 K, 101.3 kPa, x1 = 0.9014) was 1.472 ± 0.019 mPa·s, the viscosity (308.15 K, 101.3 kPa, x1 = 0.9571) was 1.548 ± 0.02 mPa·s and the viscosity (308.15 K, 101.3 kPa, x2 = 0.0137) was 1.584 ± 0.02 mPa·s. For the same compound, the viscosity (318.15 K, 101.3 kPa, x1 = 0.022) was 0.33 ± 0.006 mPa·s, the viscosity (318.15 K, 101.3 kPa, x1 = 0.0473) was 0.352 ± 0.006 mPa·s and the viscosity (318.15 K, 101.3 kPa, x1 = 0.0717) was 0.373 ± 0.006 mPa·s. For the same compound, the viscosity (318.15 K, 101.3 kPa, x1 = 0.1255) was 0.425 ± 0.007 mPa·s, the viscosity (318.15 K, 101.3 kPa, x1 = 0.1838) was 0.478 ± 0.007 mPa·s and the viscosity (318.15 K, 101.3 kPa, x1 = 0.2145) was 0.512 ± 0.008 mPa·s. It also gave a viscosity (318.15 K, 101.3 kPa, x1 = 0.236) of 0.528 ± 0.008 mPa·s, a viscosity (318.15 K, 101.3 kPa, x1 = 0.2557) of 0.549 ± 0.008 mPa·s and a viscosity (318.15 K, 101.3 kPa, x1 = 0.3143) of 0.611 ± 0.009 mPa·s. The viscosity (318.15 K, 101.3 kPa, x1 = 0.4027) was 0.699 ± 0.01 mPa·s, the viscosity (318.15 K, 101.3 kPa, x1 = 0.4806) was 0.783 ± 0.011 mPa·s and the viscosity (318.15 K, 101.3 kPa, x1 = 0.5743) was 0.883 ± 0.012 mPa·s. For the same compound, the viscosity (318.15 K, 101.3 kPa, x1 = 0.6289) was 0.942 ± 0.013 mPa·s, the viscosity (318.15 K, 101.3 kPa, x1 = 0.6511) was 0.964 ± 0.013 mPa·s and the viscosity (318.15 K, 101.3 kPa, x1 = 0.7138) was 1.031 ± 0.014 mPa·s. For the same compound, the viscosity (318.15 K, 101.3 kPa, x1 = 0.7667) was 1.086 ± 0.014 mPa·s, the viscosity (318.15 K, 101.3 kPa, x1 = 0.7792) was 1.1 ± 0.014 mPa·s and the viscosity (318.15 K, 101.3 kPa, x1 = 0.8702) was 1.195 ± 0.016 mPa·s. It also gave a viscosity (318.15 K, 101.3 kPa, x1 = 0.9014) of 1.225 ± 0.016 mPa·s, a viscosity (318.15 K, 101.3 kPa, x1 = 0.9571) of 1.278 ± 0.017 mPa·s and a viscosity (318.15 K, 101.3 kPa, x2 = 0.0137) of 1.306 ± 0.017 mPa·s.

Compound `Nc1ccccc1` + COCCO has a viscosity (303.15 K, 101 kPa, x1 = 0.0881) of 2.156 ± 0.04 mPa·s, a viscosity (303.15 K, 101 kPa, x1 = 0.1786) of 2.351 ± 0.043 mPa·s and a viscosity (303.15 K, 101 kPa, x1 = 0.2716) of 2.555 ± 0.047 mPa·s. It also gave a viscosity (303.15 K, 101 kPa, x1 = 0.3671) of 2.757 ± 0.05 mPa·s, a viscosity (303.15 K, 101 kPa, x1 = 0.4652) of 2.955 ± 0.054 mPa·s and a viscosity (303.15 K, 101 kPa, x1 = 0.5661) of 3.129 ± 0.057 mPa·s. For the same compound, the viscosity (303.15 K, 101 kPa, x1 = 0.67) was 3.284 ± 0.06 mPa·s, the viscosity (303.15 K, 101 kPa, x1 = 0.7768) was 3.437 ± 0.062 mPa·s and the viscosity (303.15 K, 101 kPa, x1 = 0.8867) was 3.591 ± 0.065 mPa·s.

`ClCc1ccccc1` + COCCOC gave a viscosity (298.15 K, 101 kPa, x2 = 0.135) of 1.176 ± 0.029 mPa·s, a viscosity (298.15 K, 101 kPa, x2 = 0.2599) of 1.026 ± 0.025 mPa·s and a viscosity (298.15 K, 101 kPa, x2 = 0.3758) of 0.908 ± 0.023 mPa·s. It also gave a viscosity (298.15 K, 101 kPa, x2 = 0.4836) of 0.807 ± 0.021 mPa·s, a viscosity (298.15 K, 101 kPa, x2 = 0.5841) of 0.716 ± 0.019 mPa·s and a viscosity (298.15 K, 101 kPa, x2 = 0.6781) of 0.635 ± 0.017 mPa·s. The viscosity (298.15 K, 101 kPa, x2 = 0.7662) was 0.564 ± 0.015 mPa·s, the viscosity (298.15 K, 101 kPa, x2 = 0.8489) was 0.506 ± 0.014 mPa·s and the viscosity (298.15 K, 101 kPa, x2 = 0.9267) was 0.453 ± 0.013 mPa·s.
